Test results: publication PMC3217850, “BACE-1 inhibition prevents the γ-secretase inhibitor evoked Aβ rise in human neuroblastoma SH-SY5Y cells” (Journal of Biomedical Science, 2011)

Experiments:
[1] = system: SH-SY5Y APPswe cells; assay: Aβ40 secretion from SH-SY5Y APPswe cells, ELISA of culture medium; type: cell-based, human; conditions: for IC50: Homo sapiens, 24 h
Method: (§1) The human neuroblastoma cell line SH-SY5Y was purchased from European Collection of Cell Cultures (ECACC). Cells were grown in DMEM/Ham's F-12 (PAA), supplemented with 1% non-essential amino acids (PAA) and 10% Fetal Bovine Serum (PAA). Cells were maintained at 37°C in a humidified atmosphere containing 5% CO2.
(§2) SH-SY5Y cells were stably transfected with plasmids carrying human APPwt or APPswe gene. APP gene was purchased from Geneservice Ltd (clone sequence BC065529; clone MGC75167) and the APPswe mutation was generated using a QuikChange® Site-Directed Mutagenesis Kit (Stratagene). APPwt and APPswe genes were cloned into a mammalian expression vector pcDNA3.1 and the expression was under the control of CMV promotor. The cells were plated at the density of 6.25 × 10^4 cells/cm^2 in 6-well culture dishes (Sarstedt) and each well was transfected with 4 μg plasmid DNA. Lipofectamine™2000 (InVitrogen) was used as a transfection reagent according to manufacturer's instructions. The transfected cells were selected with 400 μg/ml G418 (PAA).
(§3) Cells were plated at a density of 6.25 × 10^4 cells/cm^2 in 96-well cell culture plates (TRP) for Aβ measurements with ELISA or in 6-well culture dishes (Sarstedt) for Western blot. The day after the plating of the cells, the cultures were treated with various concentrations of γ-secretase inhibitor LY450139 or the BACE inhibitor for 24 hours. Stock solutions of inhibitors were prepared in dimethyl-sulfoxide (DMSO). All cultures including the control cells received equal amounts of DMSO, the final concentration being 0.1%. All the results were from two to three separate experiments and the data presented as means ± SEM.
(§4) The secreted Aβ40 and Aβ42 peptides in cell culture media were measured using human amyloid β40 or β42 ELISA kits from Millipore. The absorbance was measured at 450 nm by Microplate reader (Molecular Devices). Data from inhibitor-treated cell cultures was expressed as a percent of untreated controls and the inhibition curves were analysed by non-linear regression using Graph Pad Prism.

[2] = system: SH-SY5Y APPwt cells; assay: Aβ40 secretion from SH-SY5Y APPwt cells, ELISA of culture medium; type: cell-based, human; conditions: for IC50: Homo sapiens, 24 h
Method: as §1, §2, §3, §4

[3] = system: SH-SY5Y APPswe cells; assay: Aβ42 secretion from SH-SY5Y APPswe cells, ELISA of culture medium; type: cell-based, human; conditions: 3 nM LY450139, SH-SY5Y APPswe
Method: as §1
as §2, with “The transfected cells were selected with 400 μg/ml G418 (PAA).” left out
as §4

[4] = system: SH-SY5Y APPwt cells; assay: Aβ42 secretion from SH-SY5Y APPwt cells, ELISA of culture medium; type: cell-based, human
Method: as §1
as §2, with “The transfected cells were selected with 400 μg/ml G418 (PAA).” left out
as §4

[5] = system: Aβ; parameters: method as in PMID 19360898; conditions: healthy volunteers ref 3; cited from earlier work
[6] = system: AD patients; parameters: method as in earlier work; conditions: phase III, AD patients ref 14; cited from earlier work
[7] = system: SH-SY5Y APPwt cells; assay: Western blot (6E10 antibody) of APP substrate in cell lysates; type: cell-based, human; conditions: 3, 30 or 300 nM LY450139, 24 h
Method: as §3
SH-SY5Y cells were lysed in buffer containing 50 mM Tris-HCl pH 8.0, 150 mM NaCl, 1% Triton X-100, 1 mM EDTA, 1 mM Na3VO4 and 1 complete protease inhibitor cocktail tablet (Roche Diagnostics)/10 ml buffer. The cells were incubated with lysis buffer for 10 minutes on ice before scraping the cells from the dishes. Cell lysates were centrifuged at 14 000 rpm for 15 minutes. The protein content in the supernatants was measured using Pierce® 660 nm Protein Assay kit. Samples, containing 20 μg protein, were resolved in 7% NuPAGE®Tris-Acetate gels (InVitrogen) using Tris-Acetate SDS running buffer (InVitrogen). […] Average density of the bands was measured in ChemiDoc™XRS (Bio-Rad) by using Quantity One software.

[8] = system: Aβ; parameters: method as in PMID 20363853; conditions: preclinically ref 13; cited from earlier work

CCc1cn2c3c(cc(C(=O)N[C@@H](Cc4ccccc4)[C@H](O)CNC4CC4)cc13)N(C)S(=O)(=O)CC2 [BACE inhibitor, N-[(1S,2R)-1-Benzyl-3-(cyclopropylamino)-2-hydroxypropyl]-7-ethyl-1-methyl-3,4-dihydro-1H-[1,2, 5]thiadiazepino[3,4,5-hi-]indole-9-carboxamide 2,2-Dioxide]
IC50 ([1]; BACE inhibitor alone, SH-SY5Y APPswe): 18 nM | IC50 ([2]; BACE inhibitor alone, SH-SY5Y APPwt): 7 nM | concentration required to abolish the LY450139-evoked Aβ40 rise completely ([2]; SH-SY5Y APPwt): 30 nM

CC(C)[C@H](O)C(=O)N[C@@H](C)C(=O)N[C@@H]1C(=O)N(C)CCc2ccccc21 [LY450139, (N)-((S)-2-hydroxy-3-methyl-butyryl)-1-(L-alaninyl)-(S)-amino-3-methyl-2,3,4,5-tetrahydro-1H-3-benzazepin-2-one dihydrate]
effect on secreted Aβ42 levels [3]: not affected | secreted Aβ42 levels increase compared to controls ([4]; 3 nM LY450139, SH-SY5Y APPwt): 70% | Aβ42 secretion after washout ([4]; 300 nM LY450139 24 h, then fresh medium 24 h, SH-SY5Y APPwt): returned to control levels | effect on Aβ levels in the cerebrospinal fluid [5]: lower Aβ levels | cognitive symptoms versus placebo [6]: fared worse than placebo-treated controls | substrate (APP bands, 6E10) level [7]: accumulation of substrate | effect on Aβ40 secretion per se ([1]; 3 nM LY450139, SH-SY5Y APPswe): does not affect Aβ40-secretion per se | remaining Aβ40 secretion ([1]; 30 nM LY450139, SH-SY5Y APPswe): 20-30% | IC50 ([1]; SH-SY5Y APPswe, monophasic): 18 nM | Aβ40 levels with 3 nM LY450139 in second 24 h ([1]; after 300 nM LY450139 for first 24 h, SH-SY5Y APPswe): did not lead to increased Aβ40 levels | Aβ40 levels increase above baseline ([2]; 3 nM LY450139, 24 h, SH-SY5Y APPwt): 60% | effect on basal Aβ40 levels ([2]; 30 nM LY450139 per se, SH-SY5Y APPwt): does not affect basal Aβ40 levels | reduction of Aβ40 secretion compared to control ([2]; 300 nM LY450139, 24 h, SH-SY5Y APPwt): 80% | fold less potent at inhibiting Aβ40 secretion from APPwt cells compared to APPswe cells ([2]; APPwt vs APPswe IC50): ~ 5 fold | IC50 ([2]; SH-SY5Y APPwt, inhibitory phase at > 30 nM, approximate): ~90 nM | Aβ40 production 2 - 6 hours after washout ([2]; LY450139 pre-treated vs control cells, data not shown): did not differ | Aβ40 levels increase with 3 nM LY450139 in second 24 h ([2]; after 300 nM LY450139 for first 24 h, compared to cells given fresh medium in second 24 h, SH-SY5Y APPwt): 60% | Aβ40 secretion during 24 h after washout ([2]; pre-treated 300 nM LY450139 24 h, then fresh medium 24 h, SH-SY5Y APPwt): did not differ from control cells

CCC[C@H](N[C@H]1CCc2cc(F)cc(F)c2C1)C(=O)Nc1cn(C(C)(C)CNCC(C)(C)C)cn1 [PF-3084014]
Aβ rebound/rise attribute [8]: lack this attribute
